Columns and labels:
PC3 (Prostate) cells = assay: Sulforhodamine B (SRB) assay, PC3; format: cell-based; conditions: Homo sapiens, Prostate cell, 48 h; for CC50: read-out: LC50; for GI50 / IC (TGI): PC3 Prostate, SRB
Description: (§1) Sulforhodamine B (SRB) assays were performed according to standard National Cancer Institute Guidelines. Briefly, human tumor cells from different cancer panels were seeded into 96 well plates in […] (plating densities ranging from 5-40,000 cells/well depending on the doubling time of individual cell lines) in serum-containing media for twenty-four hours prior to the addition of the compounds to be assayed. After 24 hours, one plate of each cell line was fixed in situ with trichloroacetic acid (TCA). The fixed slides were used to determine the cell population for each cell line at the time of drug addition (Tz). Each compound to be tested was solubilized in dimethyl sulfoxide (DMSO) and the desired concentration was then added to the medium and diluted serially 1:10 to provide a total of five or ten drug concentrations plus control (in a final volume of 200 μL). The starting dose before any dilution was 100 uM for all compounds.
(§2) Following drug addition, each culture was incubated for forty-eight hours. The assay was terminated with the addition of cold TCA. The supernatant was discarded, and the plates were washed with tap water and air dried. SRB solution was then added to each well. After staining, the bound stain was solubilized and the absorbance was read on an automated plate reader at a wavelength of 515 nm.
(§3) Using the absorbance measurements [time zero, (Tz), control growth, (C), and test growth in the presence of drug at the ten concentration levels (Ti)], the percentage growth was calculated at each of the drug concentrations levels. Percentage growth inhibition was calculated as:
(§4) [(Ti−Tz)/(C−Tz)]×100 for concentrations for which Ti>/=Tz
(§5) [(Ti−Tz)/Tz]×100 for concentrations for which Ti<Tz.
(§6) Three dose response parameters were calculated for each experimental agent. Growth inhibition of 50% (GI50) was calculated from [(Ti−Tz)/(C−Tz)]×100=50, which was the drug concentration resulting in a 50% reduction in the net protein increase (as measured by SRB staining) in control cells during the drug. The drug concentration resulting in total growth inhibition (TGI) was calculated from Ti=Tz. The LC50 (concentration of drug resulting in a 50% reduction in the measured protein at the end of the drug treatment as compared to that at the beginning) indicating a net loss of cells following treatment was calculated from [(Ti−Tz)/Tz]×100=−50.
(§7) Values were calculated for each of these three parameters when the level of activity was reached; however, if the effect was not reached or was exceeded, the value for that parameter was expressed as greater or less than the maximum or minimum concentration tested.

[1] = target: Na+/K+-ATPase (Adenosine 5′-Triphosphatase isolated from porcine cerebral cortex); assay: Na+/K+-ATPase inhibitory activity, colorimetric Adenosine 5′-Triphosphatase Enzymatic Assay (Sigma); format: biochemical; conditions: enzyme from porcine cerebral cortex, 0.5 units/ml
Description: The compound inhibitory effect on ATPase activity was assessed in vitro using the colorimetric Adenosine 5′-Triphosphatase Enzymatic Assay of Sigma (St. Louis, Mo.) according to the manufacturer's instructions. This assay utilizes Adenosine 5′-Triphosphatase isolated from porcine cerebral cortex. Each reaction was performed in a final volume of […] using 0.5 units/ml enzyme in the presence of the different inhibitors. […] IC50 values were determined using the Origin® program software (OriginLab, Northampton, Mass.).

[2] = system: NCI-ADR-RES (Ovarian) cells; assay: Sulforhodamine B (SRB) assay, NCI-ADR-RES (multidrug resistant); format: cell-based, human; conditions: 48 h
Description: as §1, §2, §3, §4, §5, §6, §7

MCF7 (Breast) cells = assay: Sulforhodamine B (SRB) assay, MCF7; format: cell-based, human; conditions: for CC50 / GI50: Homo sapiens; for CC50: MCF7, 48 h, read-out: LC50
Description: as §1, §2, §3, §4, §5, §6, §7

DU145 (Prostate) cells = assay: MTT cell proliferation/viability assay, DU145; format: cell-based; conditions: Homo sapiens, DU-145, 72 h
Description: (§8) Cell proliferation/viability was assessed by the MTT [3-(4,5-dimethylthiazol-2-yl)-2,5-diphenyltetrazolium bromide] assay, which is commercially available (Sigma, St. Louis, Mo.). Cells were cultured in 96-well plates for twenty-four hours (7-10.000 cells/well) and incubated with various concentrations of the different compounds—as indicated in the Figures—in serum-containing medium (or left untreated) for seventy-two hours. At the end of incubation, the medium was aspirated and MTT dissolved in RPMI 1640 w/o phenol red was added to each well to a final concentration of 0.25 mg/ml. After four hours incubation in the dark (37° C., 5% CO2) the supernatant was discarded. The converted dye (blue formazan crystals) was solubilized by adding 200 μl dimethylsulfoxide to each well. Absorbance was measured at 550 nm with reference at 655 nm using a spectrophotometer with the respective filters. All assays were performed in triplicate.
(§9) The effect of the different compounds on the proliferation and viability of two cancer cell lines (DU145/prostate and CAKI/renal) was tested through quantitative (4,5-dimethylthiazol-2-yl)-2,5-diphenyltetrazolium bromide (MTT) assays.

A549 (Lung) cells = assay: Sulforhodamine B (SRB) assay, A549; format: cell-based; conditions: Homo sapiens; for CC50: A549, 48 h, read-out: LC50; for GI50 / IC (TGI): A549 Lung, SRB, 48 h
Description: as §1, §2, §3, §4, §5, §6, §7

HCT116 (Colon) cells = assay: Sulforhodamine B (SRB) assay, HCT116; format: cell-based, human
Description: as §1, §2, §3, §4, §5, §6, §7

SF268 (CNS) cells = assay: Sulforhodamine B (SRB) assay, SF268; format: cell-based; conditions: Homo sapiens; for CC50: SF-268, 48 h, read-out: LC50; for GI50 / IC (TGI): SF-268, SF268 CNS, SRB, 48 h
Description: as §1, §2, §3, §4, §5, §6, §7

H460 (Lung) cells = assay: Sulforhodamine B (SRB) assay, H460; format: cell-based, human; conditions: for CC50 / GI50: Homo sapiens; for CC50: NCI-H460, 48 h, read-out: LC50; for GI50: NCI-H460
Description: as §1, §2, §3, §4, §5, §6, §7

[3] = system: 7 different cell lines (lung, ovarian, prostate, CNS, breast, colon); assay: SRB assays across 7 cell lines; format: cell-based, human; conditions: for GI50 / GI50 action in most cell lines: SRB; for GI50: average over cell lines; for viability and/or cell proliferation of cell lines: cell lines representative of lung, breast, CNS, prostate, ovarian, colon and renal neoplasias
Description: as §1, §2, §3, §4, §5, §6, §7
SRB provides a colorimetric measure of a compound's anti-cancer activity. SRB assays were performed with compounds of the invention in 7 different cell lines, which represent six different tumor panels (lung, ovarian, prostate, CNS, breast, colon).

CAKI (Renal) cells = assay: MTT cell proliferation/viability assay, CAKI; format: cell-based; conditions: 72 h
Description: as §8, §9

SMILES | CC50 (PC3 (Prostate) cells) | GI50 (PC3 (Prostate) cells) | IC (TGI) (PC3 (Prostate) cells) | IC50 [1] | CC50 (MCF7 (Breast) cells) | GI50 (MCF7 (Breast) cells; MCF7 Breast, SRB, 48 h) | IC50 (DU145 (Prostate) cells) | CC50 (A549 (Lung) cells) | GI50 (A549 (Lung) cells) | IC (TGI) (A549 (Lung) cells) | CC50 (SF268 (CNS) cells) | GI50 (SF268 (CNS) cells) | IC (TGI) (SF268 (CNS) cells) | CC50 (H460 (Lung) cells) | GI50 (H460 (Lung) cells; H460 Lung, SRB, 48 h) | GI50 ([3]; Homo sapiens) | viability and/or cell proliferation of cell lines [3] | GI50 action in most cell lines [3] | IC50 (CAKI (Renal) cells) | also measured
CON=C1CC2C(CC[C@]3(C)C(=O)C(F)CC23)[C@@]2(C)CCC(=NOC3CCNC3)CC12 (stereo in doubt) [Compound 8, (5S,10R,13S,16R)-16a-fluoro-6-(methoxyimino)-10,13-dimethyl-3-((R)-pyrrolidin-3-yloxyimino)-tetradecahydro-2H-cyclopenta[a]phenanthren-17(14H)-one] | 0.919 µM | 0.009 µM | 0.199 µM | 0.311 µM | 6.96 µM | 0.024 µM | 0.223 µM | 0.075 µM | 0.006 µM | 0.029 µM | 0.085 µM | 0.004 µM | 0.038 µM | 0.074 µM | 0.004 µM | < 1 µM | reduced the viability and/or cell proliferation |  |  | CC50 ([2]; Homo sapiens, NCI/ADR-RES, read-out: LC50): 0.508 µM; GI50 ([2]; Homo sapiens, NCI-ADR-RES Ovarian, SRB): 0.014 µM; TGI ([2]; NCI-ADR-RES Ovarian, SRB): 0.071 µM; TGI (MCF7 (Breast) cells; MCF7 Breast, SRB, 48 h): 0.327 µM; TGI (HCT116 (Colon) cells; HCT116 Colon, SRB, 48 h): 0.236 µM; CC50 (HCT116 (Colon) cells; Homo sapiens, HCT-116, 48 h, read-out: LC50): 1.04 µM; GI50 (HCT116 (Colon) cells; Homo sapiens, HCT-116, HCT116 Colon, SRB, 48 h): 0.035 µM; TGI (H460 (Lung) cells; H460 Lung, SRB, 48 h): 0.027 µM; CC50 ([3]; Homo sapiens, read-out: LC50 values): < 1 µM; anti-cancer activity in SRB assays ([3]; multiple cell lines): best activity
C[C@]12CCC3C(CC[C@H]4CC(=NO[C@H]5CCNC5)CC[C@]34CO)C1CCC2=O (stereo partly drawn) [Compound 25, (5S,10R,13S)-10-(hydroxymethyl)-13-methyl-3-((S)-pyrrolidin-3-yloxyimino)-tetradecahydro-2H-cyclopenta[a]phenanthren-17(14H)-one] | 9.44 µM | 3.89 µM |  | 0.525 µM | > 100 µM | 6.17 µM | 15 µM | > 100 µM | 4.81 µM | 9410 µM | 85.4 µM | 5.74 µM | 31300 µM | > 100 µM | 4.37 µM |  | reduced the viability and/or cell proliferation | single-digit micromolar |  | 
CC(=O)OC[C@]12CCC(=NO[C@@H]3CCNC3)C[C@@H]1CCC1C2CC[C@]2(C)C(=O)CCC12 (stereo partly drawn) [Compound 48, ((5S,10R,13S)-13-methyl-17-oxo-3-((R)-pyrrolidin-3-yloxyimino)-hexadecahydro-1H-cyclopenta[a]phenanthren-10-yl)methyl acetate] | > 100 µM | 8.77 µM | > 100 µM | 2.88 µM |  |  | 11.6 µM | 102 µM | 6.31 µM | 38300 µM | 101 µM | 11.5 µM | 56400 µM |  |  |  | reduced the viability and/or cell proliferation | single-digit micromolar | 41.3 µM | 
C[C@]12CCC(=NOC3CCNC3)CC1C(=O)CC1C2CC[C@]2(C)C(=O)C(F)CC12 (stereo partly drawn) [Compound 4, (10R,13S,16R)-16a-fluoro-10,13-dimethyl-3-((S)-pyrrolidin-3-yloxyimino)-tetradecahydro-14H-cyclopenta[a]phenanthrene-6,17-dione] | 8.04 µM | 0.731 µM | 3.24 µM | 0.194 µM |  |  | 2.7 µM | 1.01 µM | 0.43 µM | 0.723 µM | 6.98 µM | 0.277 µM | 0.782 µM |  |  | < 1 µM | reduced the viability and/or cell proliferation |  | 5 µM | 

Source: patent publication US20130303500A1, “COMPOUNDS AND METHODS FOR TREATING NEOPLASIA” (Medexis S.A., priority 2010, published 2013)
